Data on 15 compounds can be found in patent US6294568A, “5-arylpyrrole derivatives” (priority 1997, dated 2001).

The subject of test [1] is carrageenan footedema. The test can be described thus: Carrageenan Footedema Suppression Test. It counts as in vivo, SD rats. The conditions noted are these: oral; paw volume three hours after carrageenan administration. The method, then:
The carrageenin footedema suppression test was conducted according to the method of Winter et al. (J. Pharm. Exp. Ther., Vol.141, 369 (1963)). The test samples suspended in Tween 80 were administered orally to SD rats (6 rats per 1 group) in an amount of 1 ml per 100 g of the body weight, while only the solvent was administered in the same manner as above as a control. One hour after the administration, 1% carrageenan physiological saline was injected subcutaneously to the rats in the plantar area of the right hind paw. Three hours after the carrageenan administration, the paw volumes were measured and the edematization rate (%) was calculated with Formula 1 and then edematization suppression rate (%) was calculated with Formula 2.
Edematization rate (%)=((paw volume after carrageenan injection- paw volume before carrageenan injection)/(paw volume before carrageenan injection)×100 Formula: 1
Edematization suppression rate (%)=((edematization rate of control-
edematization rate of test samples)/edematization rate of […]
Background: In the carrageenan paw model, swelling and tenderness develop within hours.

Test [2] addresses T1, Human COX-1 (Homo sapiens, UniProt P23219).
T1 construct: endogenous in cells; host or cells: whole blood of a healthy human donor (own knowledge: TXB2 of clotting blood comes from platelet COX-1)
The test can be described thus: Human COX-1 Inhibitory Activity Test (TXB2 in blood). Particulars: IC50 from Hill Plot. It counts as cell-based. As for the experimental part: (§1) COX-1 and COX-2 activities were measured according to the method of Patrignani et al. (J. Pharm. Exp. Ther. Vol. 271, 1705 (1994)).
(1) COX-1 activity was measured in the following procedure. […] The serum obtained by 10 minutes of centrifugation at 2000 rpm at 4° C. was stored at -40° C. until the measurement of the amount of thromboxane B2 (TXB2). The test samples, which had been dissolved in ethanol and diluted to the specified concentrations, were previously dispensed into the glass test tubes, and the solvent was evaporated to dryness by Centrifugal Vaporizer (CVE-200D, manufactured by Tokyo Rika Mfg. Co., Ltd.) so that the test samples were added to the plasma.
(3) The measurement for the TXB2 content was conducted in the following procedure. In a part of a 96 well plate coated with anti-rabbit IgG antibody, 2 wells were allotted respectively to blank well, Non-specific Binding (NSB) well, Maximum Binding (B0) well, standard wells at 7 concentrations of TXB2 (1000 pg/ml) in doubling dilution ranging from 1000-15.6 pg/ml. The rest of the wells were used for the measurement of the samples. EIA buffer was added to the NSB wells (100 μl ) and B0 wells (50 μl), respectively. 50 μl of each of the standard dilution was added in an order from thinner to thicker concentrations. Each of the samples was added to the rest of the wells in an amount of 50 μl. Then, 50 μl of TXB2 tracer was added to each of the wells except for the blank wells. Further, 50 μl of TXB2 antibody was added to each of the wells except for the NSB wells and blank wells, then the well plate was covered with a plastic film and the reaction continued for 18 hours at room temperature. When the reaction was terminated, the wells were washed 5 times with a wash buffer. 200 μl of Elman's reagent was added to each of the wells and then the well plate was covered with a plastic film and developed for 60 minutes in a dark place. The absorbance at 405 nm was measured by an Immuno Reader (NJ-2000, manufactured by Nippon Intermed Co., Ltd.). From the measurement result, %B/B0 was calculated and, applying it to the approximation formula of Hill Plot, the concentration of the samples was determined to be 2,000 times concentration. […]

Test [3] has as its target T2, Human COX-2 (Homo sapiens, UniProt P35354).
T2 construct: endogenous in cells; host or cells: heparinised whole blood of a healthy human donor pretreated with aspirin, stimulated with LPS (own knowledge: COX-2 is induced in monocytes)
T2 sequence (P35354 18-604): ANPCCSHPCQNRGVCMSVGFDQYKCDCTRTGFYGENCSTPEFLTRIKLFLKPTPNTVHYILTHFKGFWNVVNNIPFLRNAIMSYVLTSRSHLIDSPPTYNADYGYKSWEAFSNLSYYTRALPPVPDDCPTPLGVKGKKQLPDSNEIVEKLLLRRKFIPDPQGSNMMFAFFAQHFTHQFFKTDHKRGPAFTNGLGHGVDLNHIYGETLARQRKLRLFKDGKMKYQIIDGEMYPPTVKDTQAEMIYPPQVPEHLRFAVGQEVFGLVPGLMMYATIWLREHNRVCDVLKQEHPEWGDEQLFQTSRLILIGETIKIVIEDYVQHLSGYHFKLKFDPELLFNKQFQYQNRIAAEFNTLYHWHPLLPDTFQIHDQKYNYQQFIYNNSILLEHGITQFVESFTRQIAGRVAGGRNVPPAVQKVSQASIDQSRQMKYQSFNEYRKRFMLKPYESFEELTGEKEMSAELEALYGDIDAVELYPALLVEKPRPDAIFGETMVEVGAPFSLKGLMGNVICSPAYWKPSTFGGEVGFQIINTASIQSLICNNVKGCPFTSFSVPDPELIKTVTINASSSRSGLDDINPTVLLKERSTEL
The test can be described thus: Human COX-2 Inhibitory Activity Test (LPS-induced PGE2 in blood). It counts as cell-based. The conditions noted are these: for IC50: human blood, LPS, PGE2, IC50 from Hill Plot; for COX-1/COX-2: ratio of IC50 COX-1 to COX-2. As for the experimental part:
as §1
(2) COX-2 activity was measured in the following procedure. To blood collected from a healthy normal who had taken 330 mg of aspirin 48 hours before the blood collection in order to inhibit the COX-1 activity, 10 unit/ml of sodium heparin was added, and then pipetted into glass test tubes by 1 ml. 10 μg/ml of Lipopolysaccharide (LPS) was added thereto and the plasma obtained by the specified operation was stored at -40° C. until the measurement for the amount of prostaglandin E2 (PGE2). Test samples containing the test samples were treated in the same manner of operation as described above.
(4) The measurement for the PGE2 content was conducted in the following procedure. In a part of 96 well plate coated with goat anti-mouse antibody, 2 wells were alloted respectively to a blank well, Non-specific Binding (NSB) well, Maximum Binding (B0) well, standard wells at seven concentrations of PGE2 (1000 pg/ml) in doubling dilution ranging from 1000-15.6 pg/ml. The rest of the wells were used for the sample measurement. EIA buffer was added to the NSB wells (100 μl) and to the B0 wells (50 μl), respectively. 50 μl of each of the standard dilution was added in an order from thinner to thicker concentrations. Each of the samples was added to the rest of the wells in an amount of 50 μl. Then, 50 μl of PGE2 tracer was added to each of the wells except for blank wells. Further, 50 μl PGE2 monoclonal antibody was added to each of the wells except for the NSB wells and blank wells, then the well plate was covered with a plastic film and the reaction continued at room temperature for 18 hours. When the reaction was terminated, the wells were washed 5 times with a wash buffer. 200 μl of Elman's reagent was added to each of the wells, and then the well plate was covered with a plastic film and developed for 60 minutes in a dark place. The absorbance at 405 nm was measured by an Immuno Reader (NJ-2000, manufactured by Nippon Intermed Co., Ltd.). From the measurement result, %B/B0 was calculated and, applying it to the approximation formula of Hill Plot, the concentration of the samples was determined to be 40 times concentration. The dilution was conducted with an EIA buffer throughout the Test Example 3.

T1 sequence (P23219 24-599): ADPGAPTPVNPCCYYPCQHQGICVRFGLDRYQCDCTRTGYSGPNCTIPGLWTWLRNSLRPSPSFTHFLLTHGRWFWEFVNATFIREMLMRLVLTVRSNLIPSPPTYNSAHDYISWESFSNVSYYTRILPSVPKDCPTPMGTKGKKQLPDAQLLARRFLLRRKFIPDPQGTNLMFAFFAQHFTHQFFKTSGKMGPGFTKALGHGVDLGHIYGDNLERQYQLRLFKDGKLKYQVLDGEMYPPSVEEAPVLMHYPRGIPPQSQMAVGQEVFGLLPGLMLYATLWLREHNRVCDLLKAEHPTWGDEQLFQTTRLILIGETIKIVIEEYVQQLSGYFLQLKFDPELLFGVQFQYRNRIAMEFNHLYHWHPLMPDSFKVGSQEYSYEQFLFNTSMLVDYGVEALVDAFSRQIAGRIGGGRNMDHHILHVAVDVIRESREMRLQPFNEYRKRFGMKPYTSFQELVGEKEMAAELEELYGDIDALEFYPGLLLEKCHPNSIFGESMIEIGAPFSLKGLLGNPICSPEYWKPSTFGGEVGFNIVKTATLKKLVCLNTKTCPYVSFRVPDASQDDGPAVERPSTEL

With `COc1ccc(-c2cc(C)[nH]c2-c2ccc(OC)cc2)cc1` [Control compound (a), 4,5-bis(4-methoxyphenyl)-2-methyl-1H-pyrrole, reference compound], the “Edematization Suppression rate” value in test [1] is given as 23.4%. This compound yielded an IC50 in test [2] of 1 nM. Also, in test [3], the IC50 is 4820 nM and the COX-1/COX-2 is < 0.1.
The matching figures for `Cc1cc(-c2cccc(Cl)c2)c(-c2ccc(S(C)(=O)=O)cc2)[nH]1` [Preparation Example 4, 4-(3-chlorophenyl)-2-methyl-5-(4-methylsulfonylphenyl)-1H-pyrrole]: 30.1%, > 100000 nM, 164 nM and > 610.
The matching figures for `Cc1cc(-c2ccc(F)cc2F)c(-c2ccc(S(C)(=O)=O)cc2)[nH]1` [Preparation Example 7, 4-(2,4-difluorophenyl)-2-methyl-5-(4-methylsulfonylphenyl)-1H-pyrrole]: 34.5%, 30600 nM, 144 nM and 212.
The matching figures for `Cc1cc(-c2ccc(F)c(F)c2)c(-c2ccc(S(C)(=O)=O)cc2)[nH]1` [Preparation Example 8, 4-(3,4-difluorophenyl)-2-methyl-5-(4-methylsulfonylphenyl)-1H-pyrrole]: 26.7%, 26700 nM, 219 nM and > 457.
Regarding `Cc1cc(-c2ccc(F)c(Cl)c2)c(-c2ccc(S(C)(=O)=O)cc2)[nH]1` [Preparation Example 10, 4-(3-chloro-4-fluorophenyl)-2-methyl-5-(4-methylsulfonylphenyl)-1H-pyrrole], the “Edematization Suppression rate” value in test [1] was found to be 25.7%. Moreover, half-maximal inhibition in test [2] (IC50) was put at 84000 nM. In addition, in test [3], the IC50 turned out to be 274 nM and the COX-1/COX-2 turned out to be 307.
Regarding `CCc1cc(-c2ccc(F)cc2)c(-c2ccc(S(C)(=O)=O)cc2)[nH]1` [Preparation Example 11, 2-ethyl-4-(4-fluorophenyl)-5-(4-methylsulfonylphenyl)-1H-pyrrole], the IC50 in test [2] is 9900 nM; in test [3] it was 84 nM. Further, the COX-1/COX-2 in test [3] turned out to be 118.
Consider `CSc1ccc(-c2cc(C)[nH]c2-c2ccc(S(C)(=O)=O)cc2)cc1` [Preparation Example 18, 4-(4-methylthiophenyl)-2-methyl-5-(4-methylsulfonylphenyl)-1H-pyrrole], for which the “Edematization Suppression rate” value in test [1] is listed as 48.9%. For the same compound, the midpoint of inhibition in test [2], the IC50, lay at 12600 nM. In test [3], the IC50 was found to be 123 nM and the COX-1/COX-2 was 102.
In the case of `Cc1cc(-c2ccc(N(C)C)cc2)c(-c2ccc(S(C)(=O)=O)cc2)[nH]1` [Preparation Example 19, 4-(4-dimethylaminophenyl)-2-methyl-5-(4-methylsulfonylphenyl)-1H-pyrrole], the “Edematization Suppression rate” value in test [1] turned out to be 43.2%. For the same compound, in test [3], half-maximal inhibition (IC50) required 747 nM and the COX-1/COX-2 was > 134.
In the case of `Cc1cc(-c2cccc(N(C)C)c2)c(-c2ccc(S(C)(=O)=O)cc2)[nH]1` [Preparation Example 23, 4-(3-dimethylaminophenyl)-2-methyl-5-(4-methylsulfonylphenyl)-1H-pyrrole], in test [3], half-maximal inhibition (IC50) required 346 nM and the COX-1/COX-2 is > 289.
The matching figures for `COc1ccc(-c2cc(C)[nH]c2-c2ccc(S(C)(=O)=O)cc2)cc1Cl` [Preparation Example 28, 4-(3-chloro-4-methoxyphenyl)-2-methyl-5-(4-methylsulfonylphenyl)-1H-pyrrole]: 310 nM and > 323.
In the same order, the values of `Cc1cc(-c2ccc(N(C)C)c(C)c2)c(-c2ccc(S(C)(=O)=O)cc2)[nH]1` [Preparation Example 32, 4-(4-N,N-dimethylamino-3-methylphenyl)-2-methyl-5-(4-methylsulfonylphenyl)-1H-pyrrole] are 442 nM and > 226.
Consider `Cc1cc(C#Cc2ccccc2)c(-c2ccc(S(C)(=O)=O)cc2)[nH]1` [Preparation Example 48, 4-phenylethynyl-2-methyl-5-(4-methylsulfonylphenyl)-1H-pyrrole], for which, in test [1], the “Edematization Suppression rate” value came out at 40.1%. Besides, in test [3], the IC50 worked out at 300 nM and the COX-1/COX-2 is on record as > 339.
In the same order, the values of `CS(=O)(=O)c1ccc(-c2[nH]c(CCC(=O)O)cc2-c2ccc(F)cc2)cc1` [Preparation Example 50, 4-(4-fluorophenyl)-5-(4-methylsulfonylphenyl)-1H-pyrrole-2-propionic acid] are 28.9%, 454 nM and > 220.
Consider `Cc1cc(-c2ccc(F)c(F)c2F)c(-c2ccc(S(C)(=O)=O)cc2)[nH]1` [Preparation Example 52, 4-(2,3,4-trifluorophenyl)-2-methyl-5-(4-methylsulfonylphenyl)-1H-pyrrole], for which the 50% inhibitory concentration (IC50) in test [2] is 50400 nM; in test [3], 110 nM. For the same compound, the COX-1/COX-2 in test [3] is 458.
Regarding `Cc1cc(F)cc(-c2cc(C)[nH]c2-c2ccc(S(C)(=O)=O)cc2)c1` [Preparation Example 53, 4-(3-fluoro-5-methylphenyl)-2-methyl-5-(4-methylsulfonylphenyl)-1H-pyrrole], in test [3], the half-maximal inhibitory concentration (IC50) is 162 nM and the COX-1/COX-2 is recorded as 617.

The IC50 is the point on the concentration scale where inhibition reaches its midpoint.
